Laboratory results published in PMC8778091, “In Silico-Based Discovery of Natural Anthraquinones with Potential against Multidrug-Resistant E. coli” (Pharmaceuticals, 2022).
Values after ≈ are worked out from the molar mass of the structure shown. Read-outs that look alike come from different tables or passages of the source. Each block holds one compound with its values, some of them ahead of it.

What was measured:
[1] = tested on: MRSA (ATCC 25529); test: MIC, agar dilution method, MRSA; format: cell-based, S. aureus; conditions: Staphylococcus aureus, read-out: MIC MRSA
Procedure: (§1) The selected top-scoring hits were evaluated for their antibacterial effect against two clinical multidrug-resistant strains of enterotoxigenic E. coli. Both isolates were isolated as clinical samples from Beni Suef general hospital, Beni Suef, Egypt. […] MRSA (ATCC 25529) and VRSA (clinical isolate from Beni Suef general hospital, Beni Suef, Egypt) were also used to further evaluate the tested compounds against resistant Gram-positive bacteria.
(§2) Minimum inhibitory concentrations for the test compounds were analyzed following the standard agar dilution method using Meuller-Hinton (MH) agar medium against different Gram-negative and positive bacteria (Table 1). Firstly, the tested compounds were prepared as a stock suspension with a 10 mg/mL final concentration in DMSO. Subsequently, the prepared stocks were diluted in 10 mL molten soft agar (0.5% agar) to obtain a concentration range from 1–64 µg/mL, then mixed and poured over a surface of MH agar (2% agar) plates and left for solidification. Finally, exponentially grown (O.D 600 nm of 0.6) test strains (Table 1) were diluted to a final density of 10^6 CFU/mL in MH broth and spotted (1 µL/spot) over the soft agar. Then, the plates were left for drying and incubated at 37 °C for 18–20 h. Controls were conducted using DMSO seeded soft agar. At the end of the experiment, the MIC for each compound was identified as the minimum concentration that inhibited the growth of the tested strain. The experiments were carried out in triplicates.

[2] = Cellular toxicity against normal fibroblasts WI-38 (MTT); format: cell-based; conditions: human, WI-38, 1 to 50 µM overnight, MTT, read-out: CC50
Procedure: All selected top-scoring compounds were tested for their cellular toxicity against human fibroblasts cell line (WI-38). Cell line (WI-38; ATCC: CCL-75) was maintained in earth RPMI 1640 medium comprising 10% heat-inactivated fetal bovine serum (FBS) and grown at 37 °C and 5% CO2. The cell line was seeded on 96-well cell culture plates (2 × 10^4 cells/well). Cells were stimulated with tested compounds at different concentrations (from 1 to 50 µM) overnight in triplicates. Doxorubicin was used as a positive control. Cell viability was assessed by MTT assay. To normalize cell viability values, each plate included a triplicate of untreated cells considered as 100% viability, and a triplicate of cells treated with a cytotoxic mixture (200 ng/mL TNF, 200 ng/mL CD95L, 200 ng/mL TRAIL, 5 μg/mL CHX, 1% (w/v) sodium azide […]) considered as 0% viability. All other viability values were normalized according to the averages of these triplicates and analyzed by the Graph Pad Prism 5 software (La Jolla, CA, USA).

[3] = tested on: E. coli (MDR) b clinical isolate; test: MIC, agar dilution method, E. coli MDR b; format: cell-based; conditions: for MIC: Escherichia coli, read-out: MIC E. coli (MDR) b; for MIC (antibiotic susceptibility) E. coli MDRb: Table S3, unpublished data of microbiology unit, Beni Suef general hospital, same procedure
Procedure: as §1, §2

[4] = tested on: E. coli (MDR) a clinical isolate; test: MIC, agar dilution method, E. coli MDR a; format: cell-based; conditions: for MIC: Escherichia coli; for MIC (antibiotic susceptibility) E. coli MDRa: Table S3, unpublished data of microbiology unit, Beni Suef general hospital, same procedure
Procedure: as §1, §2

[5] = target: T1, E. coli gyrase B43 domain (Gyr-B) (Escherichia coli, UniProt P0AES6); test: biochemical; format: biochemical
T1 construct: 20 μL of the enzyme (E. coli gyrase B43 domain; 20 μM concentration); purchased Inspiralis ATPG001
Procedure: (§3) Ddl-B and Gyr-B activity assays were performed according to the manufacturer protocols (ProFoldin, Catalogue No. DDA100KE, and Inspiralis, Catalogue No. ATPG001, UK).
Gyr-B assay measured the capability of the tested compounds to hinder the ATPase activity of Gyr-B subunits. This assay links the hydrolysis of ATP by gyrase to the conversion of NADH to NAD^+, which can be measured by a change in absorbance at 340 nm. The assay reactions and detection were performed using a 96-well plate. […] First, the assay mix was prepared by mixing 20 μL of the assay buffer (50 mM Tris.HCl (pH 7.5), 1 mM EDTA, 5 mM magnesium chloride, 5 mM DTT, 10% (w/v) glycerol), 1 μL phosphoenolpyruvate (80 mM in water), 1.5 μL pyruvate kinase/lactate dehydrogenase stock, 2 μL NADH (20 mM in water), and 58.8 μL water. Thereafter, 63.3 μL of assay mix and 10 μL of the test compound solution and 20 μL of the enzyme (E. coli gyrase B43 domain; 20 μM concentration) were added into the wells and mixed by pipetting. After incubation for 10 min at 25 °C, 6.7 uL of ATP (30 mM) was added to each well. After 60 min of incubation at 25 °C, the absorbance was measured at 340 nm.

[6] = tested on: VRSA (clinical isolate); test: MIC, agar dilution method, VRSA; format: cell-based, S. aureus; conditions: for MIC: Staphylococcus aureus, VRSA, read-out: MIC VRSA
Procedure: as §1, §2

[7] = target: T2, E. coli DAla:D-Ala ligase (Ddl-B) (Escherichia coli, UniProt P07862); test: Ddl-B enzymatic activity assay (inorganic phosphate, absorbance 650 nm); format: biochemical
T2 construct: purchased ProFoldin DDA100KE
Procedure: as §3
Ddl-B enzymatic activity assay is based on measuring the inorganic phosphate generated from the D-Alanine: D-Alanine ligation reaction. The inorganic phosphate is detected by absorbance at 650 nm. The assay reactions and detection were performed by using a 96-well plate. Different concentrations of the test compounds and the reference inhibitor D-cycloserine were prepared in DMSO (from 10 µM to 1000 µM). […] Thereafter, 33 μL of 10× enzyme substrate was prepared by mixing 3.3 μL of 100× enzyme substrate with 29.7 μL of water. Finally, 27 μL of the premix with 3 μL of the 10× enzyme substrate in each well were mixed. After 60 min of incubation at 37 °C, 45 μL of MPA3000 dye was added into the 30 μL of the reaction mixture. After 5 min of incubation, absorbance was measured at 650 nm.

[8] = tested on: tested bacterial strains (E. coli MDR, MRSA, VRSA); test: Antibacterial evaluation, tested bacterial strains taken together; format: cell-based; conditions: Escherichia coli; E. coli MDR, MRSA, VRSA
Procedure: as §1, §2

[9] = range 1-64 µg/mL, 37 °C, 18-20 h
[10] = 10-1000 µM tested, read-out: IC50 Ddl-B
[11] = MDR isolates a and b not distinguished, read-out: MIC E. coli
[12] = range 1-64 µg/mL, 37 °C, 18-20 h, read-out: MIC E. coli (MDR) a

Compound: O=C1c2ccccc2C(=O)c2c1ccc(O)c2O [Alizarin]
MIC [1]: 64 µg/mL (≈ 266 µM) | CC50 [2]: 25.9 ± 0.69 µM | MIC [3]: > 64 µg/mL | MIC ([4]; read-out: MIC E. coli): 64 µg/mL (≈ 266 µM) | MIC ([4]; read-out: MIC E. coli (MDR) a): 64 µg/mL (≈ 266 µM) | Gyr-B inhibition in words [5]: moderately inhibited | IC50 [5]: 17.9 ± 1.2 µM | Ki [5]: 10.4 ± 1.1 µM | MIC [6]: > 64 µg/mL | MIC VRSA [6, 9]: >64 µg/mL | Ddl-B inhibition in words [7]: moderately inhibited | IC50 [7, 10]: 468 ± 6.5 µM | Ki ([7]; read-out: Ki Ddl-B): 220 ± 4.3 µM

MIC (antibiotic susceptibility) E. coli MDRb [3]: > 64 µg/mL | MIC (antibiotic susceptibility) E. coli MDRa [4]: > 64 µg/mL
Compound: CC1(C)S[C@@H]2[C@H](NC(=O)[C@H](N)c3ccccc3)C(=O)N2[C@H]1C(=O)O [Ampicillin, reference compound]

MIC (antibiotic susceptibility) E. coli MDRb [3]: 16 µg/mL (≈ 21.4 µM)
Compound: CC[C@H]1OC(=O)[C@H](C)[C@@H](O[C@H]2C[C@@](C)(OC)[C@@H](O)[C@H](C)O2)[C@H](C)[C@@H](O[C@@H]2O[C@H](C)C[C@H](N(C)C)[C@H]2O)[C@](C)(O)C[C@@H](C)CN(C)[C@H](C)[C@@H](O)[C@]1(C)O [Azithromycin, reference compound]

Compound: O=C1c2ccccc2C(=O)c2c(O)ccc(O)c21 [Quinizarin]
MIC [1, 9]: 64 µg/mL (≈ 266 µM) | CC50 ([2]; WI-38 normal fibroblast cells): 20.1 ± 0.56 µM | MIC [3, 9]: 64 µg/mL (≈ 266 µM) | MIC [4, 11]: 64 µg/mL (≈ 266 µM) | MIC [4, 12]: 64 µg/mL (≈ 266 µM) | Gyr-B inhibition in words [5]: moderately inhibited | IC50 [5]: 38.8 ± 2.3 µM | Ki [5]: 17.9 ± 1.4 µM | MIC [6, 9]: 16 µg/mL (≈ 66.6 µM) | Ddl-B inhibition in words [7]: moderately inhibited | IC50 [7, 10]: 515 ± 8.3 µM | Ki ([7]; read-out: Ki Ddl-B): 230 ± 8.3 µM

Compound: O=C1c2c(O)cccc2C([C@@H]2O[C@H](CO)[C@@H](O)[C@H](O)[C@H]2O)c2cc(CO)cc(O)c21 (stereo partly drawn) [Aloin]
MIC [8]: > 64 µg/mL | MIC [1, 9]: > 64 µg/mL | CC50 ([2]; WI-38 normal fibroblast cells): 34.7 ± 0.94 µM | MIC [3, 9]: > 64 µg/mL | MIC [4, 12]: > 64 µg/mL | Gyr-B inhibition in words [5]: weak inhibition | IC50 [5]: 22.4 ± 2.1 µM | Ki [5]: 10.5 ± 1.6 µM | MIC [6, 9]: > 64 µg/mL | Ddl-B inhibition in words [7]: weak inhibition | IC50 [7, 10]: 927 ± 7.4 µM | Ki ([7]; read-out: Ki Ddl-B): 529 ± 12.3 µM

Compound: O=C(O)c1cc(O)c2c(c1)C(=O)c1cccc(O)c1C2=O [Rhein]
MIC [1, 9]: > 64 µg/mL | CC50 [2]: > 50 µM | MIC [3, 9]: 2 µg/mL (≈ 7.04 µM) | MIC [4, 12]: 8 µg/mL (≈ 28.1 µM) | IC50 [5]: 11.5 ± 1.2 µM | Ki [5]: 7.33 ± 0.9 µM | MIC [6, 9]: 8 µg/mL (≈ 28.1 µM) | Ddl-B inhibition in words [7]: more potent | IC50 [7]: 281 ± 6.1 µM | Ki [7]: 133 ± 2.3 µM

Compound: O=C1c2cccc(O)c2C(=O)c2cccc(O)c21 [Anthrarufin]
MIC [1, 9]: 2 µg/mL (≈ 8.33 µM) | CC50 ([2]; WI-38 normal fibroblast cells): 29.7 ± 0.76 µM | MIC [3, 9]: 2 µg/mL (≈ 8.33 µM) | MIC [4, 11]: 2 µg/mL (≈ 8.33 µM) | MIC [4, 12]: 2 µg/mL (≈ 8.33 µM) | Gyr-B inhibition in words [5]: moderate activity | IC50 [5]: 6.93 ± 1.6 µM | Ki [5]: 4.1 ± 1.6 µM | MIC [6, 9]: > 64 µg/mL | MIC VRSA [6, 9]: >64 µg/mL | Ddl-B inhibition in words [7]: comparable to the reference inhibitor D-cycloserine | IC50 [7, 10]: 350 ± 7.4 µM | Ki ([7]; read-out: Ki Ddl-B): 345 ± 10.1 µM

Compound: COc1cc(O)c2c(c1)C(=O)c1cc(C)cc(O)c1C2=O [Physcion]
MIC [1, 9]: 2 µg/mL (≈ 7.04 µM) | CC50 ([2]; WI-38 normal fibroblast cells): > 50 µM | MIC [3, 9]: 2 µg/mL (≈ 7.04 µM) | MIC [4, 12]: 2 µg/mL (≈ 7.04 µM) | IC50 [5]: 10.9 ± 0.5 µM | Ki [5]: 6.6 ± 0.9 µM | MIC [6, 9]: 2 µg/mL (≈ 7.04 µM) | Ddl-B inhibition in words [7]: more potent | IC50 [7, 10]: 244 ± 7.2 µM | Ki ([7]; read-out: Ki Ddl-B): 119 ± 9.1 µM

MIC (antibiotic susceptibility) E. coli MDRb [3]: 64 µg/mL (≈ 141 µM) | MIC (antibiotic susceptibility) E. coli MDRa [4]: 32 µg/mL (≈ 70.3 µM)
Compound: CO/N=C(\C(=O)N[C@@H]1C(=O)N2C(C(=O)O)=C(COC(C)=O)CS[C@H]12)c1csc(N)n1 [Cefotaxime, reference compound]
